Patent EP4775575A1, “COMPOUND USED AS CDK4 KINASE INHIBITOR AND USE THEREOF” (TYK Medicines, Inc., priority 2023, dated 2025)
Read-outs that look alike come from different tables or passages of the source.

Tests used:
[1] = tested on: Human breast cancer cells MCF-7; assay: Cell anti-proliferation assay (MTT), MCF-7; format: cell-based; details: MCF-7 cells, incubated for 5 days
Method: (§1) Human breast cancer cells MCF-7, human ovarian cancer cells A2780, human mantle cell lymphoma cells JEKO-1. DMEM medium (Bio-Channel), DMSO (dimethyl sulfoxide), MTT (thiazolyl blue), 0.25% EDTA-Trypsin (trypsin digestive solution), 1×PBS (phosphate buffered saline, pH 7.2), 96-well plate (Corning), fetal bovine serum (FBS), 10,000 U/mL penicillin-G/streptomycin, high-speed refrigerated centrifuge (EPPENDORF 5810R), and microplate reader (Tecan Spark).
(§2) • A) Tumor cells were cultured in DMEM (high glucose, containing 10% FBS and 100 U/mL penicillin-G/streptomycin) at 37 °C, 5% CO2 and saturated humidity until 80-90% confluence. • B) The medium in the 10 cm culture dish was removed. • C) Cells were rinsed once with 10 mL of 1×PBS. • D) 4 mL of 0.25% EDTA-Trypsin was added, and the cells were digested in a 37 °C, 5% CO2 incubator for 5 minutes. The mixture was transferred to a 15 mL centrifuge tube, centrifuged at 200 g for 5 minutes, and the supernatant was discarded to obtain cell pellet. • E) The cells were resuspended in 4 mL of DMEM medium, counted, and adjusted to 50,000 cells/mL. • F) 100 µL of cell suspension was added to each well of a 96-well plate, and the plate was incubated overnight at 37 °C in a 5% CO2 incubator.
(§3) • A) Gradient dilution solutions of the test compounds were prepared: the test compound was prepared into a 1 mM stock solution. Then 1.5 µL of the stock solution was dissolved in 1.5 mL of DMSO-free medium, followed by 3-fold serial gradient dilution with medium containing 0.1% DMSO to give 9 concentrations.
(§4) • A) The cell culture plate was taken out, and 10 µL of 5 mg/mL MTT was added in a biological safety cabinet; • B) The plate was returned to the incubator and incubated for another 3 hours; • C) The cell culture plate was taken out and the medium was removed, 100 µL of isopropanol (containing 0.4 mM HCl, 0.1% NP-40) was added, and the plate was shaken at room temperature for 30 minutes; • D) The absorbance at 570 nm was measured using a TECAN microplate reader.

[2] = tested on: human mantle cell lymphoma cells JEKO-1; assay: Cell anti-proliferation assay (MTT), JEKO-1; format: cell-based; details: JEKO-1 cells, incubated for 5 days
Method: as §1, §2, §3, §4

[3] = tested on: human ovarian cancer cells A2780; assay: Cell anti-proliferation assay (MTT), A2780; format: cell-based; details: incubated for 5 days
Method: as §1, §2, §3, §4

[4] = Preclinical pharmacokinetic study in rats; format: in vivo, Sprague-Dawley (SD) rats; details: male SD rats, oral gavage (p.o.) 10 mg/kg, plasma; for AUC(0-t) / Cmax / Tmax: rat
Method: Healthy adult Sprague-Dawley (SD) rats, male, 6-8 weeks old, weighing 200-300 g. EDTA-Na2 anticoagulant. Analytical balance, animal weighing scale, magnetic stirrer, refrigerated centrifuge, single-channel manual pipette, etc. About 10 mg of the test sample was precisely weighed, dissolved in a calculated volume of 5% DMSO, followed by addition of 10% solutol HS-15 and 85% normal saline. The mixture was sonicated and vortexed to homogeneity to obtain a solution with a concentration of 1 mg/mL. The solution was freshly prepared before use. Animals were housed in rat cages and fasted overnight (no less than 10 h) before the test, with free access to water. On the day of the test, animals were weighed and marked on the tail. Blank blood samples were collected before administration. The blood was collected via tail vein. • Route of administration: oral gavage (p.o.) • Dose: 10 mg/kg • Dosing volume: 10 mL/kg • Procedure: The rat was held upright with the left hand wearing bite-resistant glove. A 16-gauge gavage needle was inserted through the mouth into the esophagus. The needle was advanced gently without obvious resistance, and the drug solution was injected into the stomach. Whole blood (0.1 mL) were collected from each test animal before administration and at 0.5 […], and 24 h after administration into EDTA-Na2 anticoagulant tubes. The tubes were inverted 3-4 times for mixing, then centrifuged at 10,000 g for 5 min at 4 °C to separate plasma. Plasma samples were stored at -80 °C until analysis. Blood was collected via tail vein. […] The mixture was vortexed for 2 min and centrifuged at 10,000 g for 10 min at 4 °C. Processing of unknown plasma samples: 25 μL of drug-containing rat plasma was transferred, followed by addition of 25 μL of methanol and 200 μL of internal standard solution. The mixture was vortexed for 2 min and centrifuged at 10,000 g for 10 min at 4 °C. The supernatant was collected for LC-MS/MS analysis. A quantitative method for the determination of the test compound was established using a Shimadzu liquid chromatography system coupled with Triple Quad^TM 6500+ AB mass spectrometer. The concentration of the parent drug in plasma was determined. The plasma concentration-time curve was plotted, and the main pharmacokinetic parameters were calculated using a non-compartmental model in winnonlin Phoenix software.

Compound | IC50 ([1]; Homo sapiens, MCF7, 120 h) [nM] | IC50 ([2]; Homo sapiens, 120 h) [nM] | IC50 ([3]; Homo sapiens, 120 h) [nM] | other results
C[C@H]1CCN(C2CCC2)c2nc3c(F)cc(-c4nc(N[C@@H]5CCOC[C@H]5O)ncc4Cl)cc3n21 [TA-5] | 500 to 2000 | ≤ 500 | ≤ 500 | –
C[C@H]1CCN(C2CCCC2)c2nc3c(F)cc(-c4nc(N[C@@H]5CCOC[C@H]5O)ncc4Cl)cc3n21 [TA-6] | ≤ 500 | 500 to 2000 | ≤ 500 | –
COc1ccc(CN2CC[C@H](C)n3c2nc2c(F)cc(-c4nc(N[C@@H]5CCOC[C@H]5O)ncc4Cl)cc23)cc1 [TA-8] | ≤ 500 | ≤ 500 | 500 to 2000 | –
[2H]C([2H])([2H])N1CC[C@H](C)n2c1nc1c(F)cc(-c3nc(N[C@@H]4CCOC[C@H]4O)ncc3Cl)cc12 [TA-28] | – | – | – | IC50 ([1]; read-out: MCF7 IC50): ≤ 500 nM; IC50 [2]: ≤ 500 nM; IC50 [3]: ≤ 500 nM; HL_ [4]: 1.58 h; AUC(0-t) ([4]; in vivo): 2490 ng·h/mL; Cmax ([4]; in vivo): 990 ng/mL; Tmax ([4]; in vivo): 30 min
C[C@H]1CCN(CC(F)(F)F)c2nc3c(F)cc(-c4nc(N[C@@H]5CCOC[C@H]5O)ncc4Cl)cc3n21 [TA-29] | ≤ 500 | ≤ 500 | ≤ 500 | AUC(0-t) ([4]; Sprague-Dawley): 1490 ng·h/mL; Cmax ([4]; Sprague-Dawley): 506 ng/mL; Tmax ([4]; Sprague-Dawley): 40.2 min; HL_ [4]: 1.60 h
C[C@H]1CCN(C2COC2)c2nc3c(F)cc(-c4nc(N[C@@H]5CCOC[C@H]5O)ncc4Cl)cc3n21 [TA-30] | > 2000 | > 2000 | > 2000 | –
C[C@H]1CCN([C@H]2C[C@H](O)C2)c2nc3c(F)cc(-c4nc(N[C@@H]5CCOC[C@H]5O)ncc4Cl)cc3n21 [TA-31] | – | – | – | IC50 ([1]; read-out: MCF7 IC50): > 2000 nM; IC50 [2]: ≤ 500 nM; IC50 [3]: 500 to 2000 nM
C[C@H]1CCN([C@H]2C[C@@H](O)C2)c2nc3c(F)cc(-c4nc(N[C@@H]5CCOC[C@H]5O)ncc4Cl)cc3n21 [TA-42] | > 2000 | 500 to 2000 | 500 to 2000 | –
CC(C)n1c(N2CCOC2=O)nc2c(F)cc(-c3nc(N[C@@H]4CCOC[C@H]4O)ncc3C(F)(F)F)cc21 [TB-27] | – | – | – | AUC(0-t) ([4]; Sprague-Dawley): 11500 ng·h/mL; Cmax ([4]; Sprague-Dawley): 1500 ng/mL; Tmax ([4]; Sprague-Dawley): 140 min; HL_ [4]: 3.69 h
CN1CCCn2c1nc1c(F)cc(-c3nc(N[C@@H]4CCOC[C@H]4O)ncc3C(F)(F)F)cc12 [TB-41, (3S,4R)-4-((4-(9-fluoro-1-methyl-1,2,3,4-tetrahydrobenzo[4,5]imidazo[1,2-a]pyrimidin-7-yl)-5-(trifluoromethyl)pyrimidin-2-yl)amino)tetrahydro-2H-pyran-3-ol] | 500 to 2000 | 500 to 2000 | 500 to 2000 | –
CN1CCCn2c1nc1c(F)cc(-c3nc(NC4CCN(S(C)(=O)=O)CC4)ncc3Cl)cc12 [TB-43, 5-chloro-4-(9-fluoro-1-methyl-1,2,3,4-tetrahydrobenzo[4,5]imidazo[1,2-a]pyrimidin-7-yl)-N-(1-(methylsulfonyl)piperidin-4-yl)pyrimidin-2-amine] | – | – | – | IC50 ([1]; read-out: MCF7 IC50): ≤ 500 nM; IC50 [2]: ≤ 500 nM; IC50 [3]: ≤ 500 nM
COC(=O)N1CCC(Nc2ncc(Cl)c(-c3cc(F)c4nc5n(c4c3)CCCN5C)n2)CC1 [TB-93, methyl 4-((5-chloro-4-(9-fluoro-1-methyl-1,2,3,4-tetrahydrobenzo[4,5]imidazo[1,2-a]pyrimidin-7-yl)pyrimidin-2-yl)amino)piperidine-1-carboxylate] | 500 to 2000 | ≤ 500 | ≤ 500 | –
CC(C)N1CCCn2c1nc1c(F)cc(-c3nc(N[C@@H]4CCOC[C@H]4O)ncc3Cl)cc12 [TB-108, (3S,4R)-4-((5-chloro-4-(9-fluoro-1-isopropyl-1,2,3,4-tetrahydrobenzo[4,5]imidazo[1,2-a]pyrimidin-7-yl)pyrimidin-2-yl)amino)tetrahydro-2H-pyran-3-ol] | ≤ 500 | ≤ 500 | ≤ 500 | AUC(0-t) ([4]; Sprague-Dawley): 1370 ng·h/mL; Cmax ([4]; Sprague-Dawley): 503 ng/mL; Tmax ([4]; Sprague-Dawley): 36 min; HL_ [4]: 1.25 h
CCN1CCCn2c1nc1c(F)cc(-c3nc(N[C@@H]4CCOC[C@H]4O)ncc3Cl)cc12 [TB-109, (3S,4R)-4-((5-chloro-4-(1-ethyl-9-fluoro-1,2,3,4-tetrahydrobenzo[4,5]imidazo[1,2-a]pyrimidin-7-yl)pyrimidin-2-yl)amino)tetrahydro-2H-pyran-3-ol] | 500 to 2000 | ≤ 500 | ≤ 500 | AUC(0-t) ([4]; Sprague-Dawley): 1770 ng·h/mL; Cmax ([4]; Sprague-Dawley): 777 ng/mL; Tmax ([4]; Sprague-Dawley): 30 min; HL_ [4]: 5.32 h
CN1CCC(C)(C)n2c1nc1c(F)cc(-c3cc(N[C@@H]4CCOC[C@H]4O)ncc3Cl)cc12 [TB-150] | ≤ 500 | ≤ 500 | ≤ 500 | –
C[C@H]1C[C@H](C)n2c(nc3c(F)cc(-c4nc(N[C@@H]5CCOC[C@H]5O)ncc4Cl)cc32)N1C [TB-153] | – | – | – | IC50 ([1]; read-out: MCF7 IC50): ≤ 500 nM; IC50 [2]: ≤ 500 nM; IC50 [3]: ≤ 500 nM
C[C@H]1CC(=O)N(C)c2nc3c(F)cc(-c4cc(N[C@@H]5CCOC[C@H]5O)ncc4Cl)cc3n21 [TB-158] | ≤ 500 | ≤ 500 | ≤ 500 | –
C[C@H]1CCN(CC(F)F)c2nc3c(F)cc(-c4nc(N[C@@H]5CCOC[C@H]5O)ncc4Cl)cc3n21 [TC-6] | 500 to 2000 | ≤ 500 | ≤ 500 | –
C[C@H]1CCN(S(C)(=O)=O)c2nc3c(F)cc(-c4nc(N[C@@H]5CCOC[C@H]5O)ncc4Cl)cc3n21 [TC-8] | > 2000 | > 2000 | 500 to 2000 | –
C[C@H]1CCN(c2c(F)cccc2F)c2nc3c(F)cc(-c4nc(N[C@@H]5CCOC[C@H]5O)ncc4Cl)cc3n21 [TC-15] | 500 to 2000 | 500 to 2000 | 500 to 2000 | –
C[C@H]1CCN(c2cc(F)ccc2F)c2nc3c(F)cc(-c4nc(N[C@@H]5CCOC[C@H]5O)ncc4Cl)cc3n21 [TC-16] | ≤ 500 | ≤ 500 | ≤ 500 | –
C[C@H]1CCN(c2ccccc2C#N)c2nc3c(F)cc(-c4nc(N[C@@H]5CCOC[C@H]5O)ncc4Cl)cc3n21 [TC-18] | ≤ 500 | ≤ 500 | ≤ 500 | –
